According to US20240083897A1, “GCN2 MODULATING COMPOUNDS AND USES THEREOF” (HiberCell, Inc., priority 2021, published 2024):
Structures can show the parent of a compound that is named as a salt.

Molecular target: GCN2 (Homo sapiens (Human), UniProt Q9P2K8)
Assay: TR-FRET biochemical assay for inhibition of GCN2
Details: not given

GCN2, sequence (Q9P2K8 whole entry): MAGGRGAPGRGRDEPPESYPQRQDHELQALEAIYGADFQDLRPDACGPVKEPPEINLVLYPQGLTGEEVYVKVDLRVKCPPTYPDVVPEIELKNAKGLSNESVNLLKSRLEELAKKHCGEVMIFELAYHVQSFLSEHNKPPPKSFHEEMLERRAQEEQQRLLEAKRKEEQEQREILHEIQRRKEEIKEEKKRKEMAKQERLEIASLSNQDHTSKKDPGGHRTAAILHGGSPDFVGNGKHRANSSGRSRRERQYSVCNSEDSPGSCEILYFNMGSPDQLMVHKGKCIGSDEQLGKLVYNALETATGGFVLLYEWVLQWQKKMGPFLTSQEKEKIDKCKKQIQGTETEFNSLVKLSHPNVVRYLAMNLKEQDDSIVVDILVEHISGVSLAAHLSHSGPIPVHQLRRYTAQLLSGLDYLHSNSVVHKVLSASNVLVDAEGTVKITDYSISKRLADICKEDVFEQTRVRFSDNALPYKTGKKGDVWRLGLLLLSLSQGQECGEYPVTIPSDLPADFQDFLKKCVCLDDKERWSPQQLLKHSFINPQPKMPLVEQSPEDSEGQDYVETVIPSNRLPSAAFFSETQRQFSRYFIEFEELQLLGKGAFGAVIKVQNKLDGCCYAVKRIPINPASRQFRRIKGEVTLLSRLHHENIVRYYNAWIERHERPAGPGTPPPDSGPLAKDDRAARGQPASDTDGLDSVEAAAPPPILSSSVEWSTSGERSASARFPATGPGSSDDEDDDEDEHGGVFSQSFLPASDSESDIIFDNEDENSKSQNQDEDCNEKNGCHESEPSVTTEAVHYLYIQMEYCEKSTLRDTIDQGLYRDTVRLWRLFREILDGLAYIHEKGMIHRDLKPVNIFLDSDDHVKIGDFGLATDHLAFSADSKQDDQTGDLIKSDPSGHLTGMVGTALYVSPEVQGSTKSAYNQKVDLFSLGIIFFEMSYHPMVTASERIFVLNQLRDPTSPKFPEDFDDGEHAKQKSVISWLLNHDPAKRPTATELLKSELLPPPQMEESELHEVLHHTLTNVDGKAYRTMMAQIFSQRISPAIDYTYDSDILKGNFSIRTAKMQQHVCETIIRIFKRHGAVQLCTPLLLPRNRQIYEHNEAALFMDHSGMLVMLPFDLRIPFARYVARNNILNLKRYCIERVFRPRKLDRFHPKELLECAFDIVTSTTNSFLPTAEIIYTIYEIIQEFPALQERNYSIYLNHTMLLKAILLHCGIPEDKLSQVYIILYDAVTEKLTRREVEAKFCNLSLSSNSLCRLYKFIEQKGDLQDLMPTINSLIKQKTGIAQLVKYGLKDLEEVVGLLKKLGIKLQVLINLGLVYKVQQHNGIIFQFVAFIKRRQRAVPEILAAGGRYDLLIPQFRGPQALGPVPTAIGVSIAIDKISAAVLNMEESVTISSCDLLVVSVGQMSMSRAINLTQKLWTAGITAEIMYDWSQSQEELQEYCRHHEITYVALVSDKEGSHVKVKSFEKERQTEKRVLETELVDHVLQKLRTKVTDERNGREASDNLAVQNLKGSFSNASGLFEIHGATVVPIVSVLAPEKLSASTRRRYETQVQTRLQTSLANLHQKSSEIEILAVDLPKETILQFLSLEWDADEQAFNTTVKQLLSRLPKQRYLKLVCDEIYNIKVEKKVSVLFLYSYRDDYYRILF

Q: How did the IC50 turn out when `CNC(=O)c1ncn2c1CC[C@H](c1c(F)ccc(NS(=O)(=O)c3cc(Cl)cnc3OC)c1F)[C@@H]2C` [Compound 96-1, (5S,6R)-6-[3-(5-chloro-2-methoxypyridine-3-sulfonamido)-2,6-difluorophenyl]-N,5-dimethyl-5H,6H,7H,8H-imidazo[1,5-a]pyridine-1-carboxamide] was run?
A: The IC50 was 50 to 500 nM.

Q: For `CNC(=O)c1ncn2cc(-c3c(F)ccc(NS(=O)(=O)c4cc(F)cnc4C)c3F)ncc12` [Compound 91, 6-[2,6-difluoro-3-(5-fluoro-2-methylpyridine-3-sulfonamido)phenyl]-N-methylimidazo[1,5-a]pyrazine-1-carboxamide], which IC50 is on record?
A: The IC50 was 50 to 500 nM.

Q: `CNC(=O)c1ncn2cc(-c3c(F)ccc(NS(=O)(=O)c4cc(Cl)cnc4OC)c3F)c(OC)nc12` [Compound 17, 3-[3-(5-chloro-2-methoxypyridine-3-sulfonamido)-2,6-difluorophenyl]-2-methoxy-N-methylimidazo[1,5-a]pyrimidine-8-carboxamide] was tested. Which IC50 did it give?
A: Its IC50 is 50 to 500 nM.

Q: How did the IC50 turn out when `CNC(=O)c1ncn2cc(-c3c(F)ccc(NS(=O)(=O)c4cc(C#N)cc(C(F)(F)F)c4)c3F)ccc12` [Compound 23, 6-[3-[3-cyano-5-(trifluoromethyl)benzenesulfonamido]-2,6-difluorophenyl]-N-methylimidazo[1,5-a]pyridine-1-carboxamide] was run?
A: The IC50 was 50 to 500 nM.

Q: `CCOc1ncc(Cl)cc1S(=O)(=O)Nc1ccc(F)c(-c2cn3cnc(C(=O)NC)c3cn2)c1F` [Compound 167, 6-[3-(5-chloro-2-ethoxypyridine-3-sulfonamido)-2,6-difluorophenyl]-N-methylimidazo[1,5-a]pyrazine-1-carboxamide] was tested. Which IC50 did it give?
A: Its IC50 is 50 to 500 nM.

Q: Which IC50 does the source give for `Cc1ncc(F)cc1S(=O)(=O)Nc1ccc(F)c(-c2ccc3c(-c4ccn(C)n4)ncn3c2)c1F` [Compound 54, N-[2,4-difluoro-3-[1-(1-methylpyrazol-3-yl)imidazo[1,5-a]pyridin-6-yl]phenyl]-5-fluoro-2-methylpyridine-3-sulfonamide] here?
A: The IC50 was 50 to 500 nM.

Q: How did the IC50 turn out when `CNC(=O)c1ncn2c1CO[C@H](c1c(F)ccc(NS(=O)(=O)c3cc(Cl)cnc3OC)c1F)C2` [Compound 154-2, (6R)-6-[3-(5-chloro-2-methoxypyridine-3-sulfonamido)-2,6-difluorophenyl]-N-methyl-5H,6H,8H-imidazo[4,3-c][1,4]oxazine-1-carboxamide hydrochloride] was run?
A: The IC50 was 50 to 500 nM.

Same assay, conditions: GCN2 2 nM, 100 nM GFP-eIF2a, 150 μM ATP, TR-FRET

Q: How did the IC50 turn out when `Cc1ncc(Cl)cc1S(=O)(=O)Nc1ccc(F)c(-c2ccc3c(-n4cnnn4)ncn3c2)c1F` [Compound 77, 5-chloro-N-[2,4-difluoro-3-[1-(1,2,3,4-tetrazol-1-yl)imidazo[1,5-a]pyridin-6-yl]phenyl]-2-methylpyridine-3-sulfonamide] was run?
A: Its IC50 is under 50 nM.

Q: `CCNC(=O)c1ncn2cc(-c3c(F)ccc(NS(=O)(=O)c4cc(Cl)cnc4OC)c3F)ncc12` [Compound 165, 6-[3-(5-chloro-2-methoxypyridine-3-sulfonamido)-2,6-difluorophenyl]-N-ethylimidazo[1,5-a]pyrazine-1-carboxamide] was tested. Which IC50 did it give?
A: The IC50 was under 50 nM.

Q: Which IC50 does the source give for `CNC(=O)c1ncn2c1CN(C)[C@H](c1c(F)ccc(NS(=O)(=O)c3cc(Cl)cnc3OC)c1F)C2` (single isomer, unassigned) [Compound 33-1] here?
A: The IC50 was over 1000 nM.

Q: Which IC50 does the source give for `Cc1nnc(-c2ncn3c2CC[C@@H](c2c(F)ccc(NS(=O)(=O)c4cc(Cl)cnc4C)c2F)C3)[nH]1` [Compound 136-1, 5-chloro-N-[2,4-difluoro-3-[(6S)-1-(5-methyl-4H-1,2,4-triazol-3-yl)-5H,6H,7H,8H-imidazo[1,5-a]pyridin-6-yl]phenyl]-2-methylpyridine-3-sulfonamide] here?
A: The IC50 was under 50 nM.

Q: For `COc1ncc(C#N)cc1S(=O)(=O)Nc1ccc(F)c(-c2ccn3c(-c4ncc[nH]4)ncc3c2F)c1F` [Compound 42, 5-cyano-N-[2,4-difluoro-3-[8-fluoro-3-(1H-imidazol-2-yl)imidazo[1,5-a]pyridin-7-yl]phenyl]-2-methoxypyridine-3-sulfonamide], which IC50 is on record?
A: Its IC50 is under 50 nM.

Q: For `COc1ncc(Cl)cc1S(=O)(=O)Nc1ccc(F)c(-c2ccc3c(-n4cnnn4)ncn3c2)c1F` [Compound 63, 5-chloro-N-[2,4-difluoro-3-[1-(1,2,3,4-tetrazol-1-yl)imidazo[1,5-a]pyridin-6-yl]phenyl]-2-methoxypyridine-3-sulfonamide], which IC50 is on record?
A: The IC50 was under 50 nM.

Q: With `Cc1nnc(-c2ncn3c2CC[C@H](c2c(F)ccc(NS(=O)(=O)c4cc(Cl)cnc4C)c2F)C3)[nH]1` [Compound 136-2, 5-chloro-N-[2,4-difluoro-3-[(6R)-1-(5-methyl-4H-1,2,4-triazol-3-yl)-5H,6H,7H,8H-imidazo[1,5-a]pyridin-6-yl]phenyl]-2-methylpyridine-3-sulfonamide] as the compound, how does the IC50 read?
A: The IC50 was under 50 nM.

Q: How did the IC50 turn out when `Cc1ncc(F)cc1S(=O)(=O)Nc1ccc(F)c(-c2ccc3c(-c4nnc[nH]4)ncn3c2)c1F` [Compound 72, N-[2,4-difluoro-3-[1-(4H-1,2,4-triazol-3-yl)imidazo[1,5-a]pyridin-6-yl]phenyl]-5-fluoro-2-methylpyridine-3-sulfonamide] was run?
A: The IC50 was under 50 nM.

Q: With `COc1ncc(Cl)cc1S(=O)(=O)Nc1ccc(F)c(-c2cn3cnc(C(N)=O)c3cn2)c1F` [Compound 171, 6-[3-(5-chloro-2-methoxypyridine-3-sulfonamido)-2,6-difluorophenyl]imidazo[1,5-a]pyrazine-1-carboxamide] as the compound, how does the IC50 read?
A: Its IC50 is under 50 nM.

Q: Which IC50 does the source give for `COc1ncc(Cl)cc1S(=O)(=O)Nc1ccc(F)c(-c2cn3cnc(C(=O)NCCO)c3cn2)c1F` [Compound 161, 6-[3-(5-chloro-2-methoxypyridine-3-sulfonamido)-2,6-difluorophenyl]-N-(2-hydroxyethyl)imidazo[1,5-a]pyrazine-1-carboxamide] here?
A: The IC50 was under 50 nM.

Q: `COc1ncc(F)cc1S(=O)(=O)Nc1ccc(F)c(-c2ccc3c(-c4nc5ccc(N6CCN(C)CC6)cc5[nH]4)ncn3c2)c1F` [Compound 185, N-(2,4-difluoro-3-[1-[5-(4-methylpiperazin-1-yl)-3H-1,3-benzodiazol-2-yl]imidazo[1,5-a]pyridin-6-yl]phenyl)-5-fluoro-2-methoxypyridine-3-sulfonamide] was tested. Which IC50 did it give?
A: The IC50 was under 50 nM.

Q: `Cc1ncc(Cl)cc1S(=O)(=O)Nc1ccc(F)c(-c2ccc3c(-c4ncc[nH]4)ncn3c2)c1F` [Compound 25, 5-chloro-N-[2,4-difluoro-3-[1-(1H-imidazol-2-yl)imidazo[1,5-a]pyridin-6-yl]phenyl]-2-methylpyridine-3-sulfonamide] was tested. Which IC50 did it give?
A: Its IC50 is under 50 nM.

Q: Which IC50 does the source give for `COc1ncc(F)cc1S(=O)(=O)Nc1ccc(F)c(-c2ccc3c(-c4nc(C)c(C)[nH]4)ncn3c2)c1F` [Compound 144, N-(3-(1-(4,5-dimethyl-1H-imidazol-2-yl)imidazo[1,5-a]pyridin-6-yl)-2,4-difluorophenyl)-5-fluoro-2-methoxypyridine-3-sulfonamide] here?
A: Its IC50 is under 50 nM.

Q: How did the IC50 turn out when `Cc1nnc(-c2ncn3cc(-c4c(F)ccc(NS(=O)(=O)c5cc(F)cnc5C)c4F)ccc23)[nH]1` [Compound 60, N-[2,4-difluoro-3-[1-(5-methyl-4H-1,2,4-triazol-3-yl)imidazo[1,5-a]pyridin-6-yl]phenyl]-5-fluoro-2-methylpyridine-3-sulfonamide] was run?
A: The IC50 was under 50 nM.

Q: For `Cc1ncc(F)cc1S(=O)(=O)Nc1ccc(F)c(-c2ccc3c(-c4ncc(CO)[nH]4)ncn3c2)c1F` [Compound 51, N-(2,4-difluoro-3-[1-[4-(hydroxymethyl)-3H-imidazol-2-yl]imidazo[1,5-a]pyridin-6-yl]phenyl)-5-fluoro-2-methylpyridine-3-sulfonamide], which IC50 is on record?
A: Its IC50 is under 50 nM.

Q: Which IC50 does the source give for `COc1ncc(Cl)cc1S(=O)(=O)Nc1ccc(F)c(-c2cn3cnc(C(=O)NCC4CCOCC4)c3cn2)c1F` [Compound 163, 6-[3-(5-chloro-2-methoxypyridine-3-sulfonamido)-2,6-difluorophenyl]-N-(oxan-4-ylmethyl)imidazo[1,5-a]pyrazine-1-carboxamide] here?
A: Its IC50 is under 50 nM.

Q: `COc1ncc(F)cc1S(=O)(=O)Nc1ccc(F)c(-c2cn3cnc(-c4nc(-c5ccccc5)c[nH]4)c3cn2)c1F` [Compound 156, N-[2,4-difluoro-3-[1-(4-phenyl-1H-imidazol-2-yl)imidazo[1,5-a]pyrazin-6-yl]phenyl]-5-fluoro-2-methoxypyridine-3-sulfonamide] was tested. Which IC50 did it give?
A: Its IC50 is under 50 nM.

Q: Which IC50 does the source give for `CNC(=O)c1ncn2cc(-c3c(F)ccc(NS(=O)(=O)c4cc(Cl)cnc4OC)c3Cl)ncc12` [Compound 106, 6-[2-chloro-3-(5-chloro-2-methoxypyridine-3-sulfonamido)-6-fluorophenyl]-N-methylimidazo[1,5-a]pyrazine-1-carboxamide] here?
A: The IC50 was under 50 nM.

Q: Which IC50 does the source give for `Cc1ncc(Cl)cc1S(=O)(=O)Nc1ccc(F)c(-c2ccc3c(-c4ccno4)ncn3c2)c1F` [Compound 121, 5-chloro-N-[2,4-difluoro-3-[1-(1,2-oxazol-5-yl)imidazo[1,5-a]pyridin-6-yl]phenyl]-2-methylpyridine-3-sulfonamide] here?
A: The IC50 was under 50 nM.

Q: `CNC(=O)c1ncn2cc(-c3c(F)ccc(NS(=O)(=O)c4cc(C(F)(F)F)cnc4OC)c3F)ccc12` [Compound 13, 6-[2,6-difluoro-3-[2-methoxy-5-(trifluoromethyl)pyridine-3-sulfonamido]phenyl]-N-methylimidazo[1,5-a]pyridine-1-carboxamide] was tested. Which IC50 did it give?
A: The IC50 was under 50 nM.

Q: `CNC(=O)c1ncc2c(F)c(-c3c(F)ccc(NS(=O)(=O)c4cc(Cl)cnc4OC)c3F)ccn12` [Compound 21, 7-[3-(5-chloro-2-methoxypyridine-3-sulfonamido)-2,6-difluorophenyl]-8-fluoro-N-methylimidazo[1,5-a]pyridine-3-carboxamide] was tested. Which IC50 did it give?
A: Its IC50 is under 50 nM.

Q: `COc1ncc(F)cc1S(=O)(=O)Nc1ccc(F)c(-c2cn3cnc(-c4nc(Cc5ccccc5)c[nH]4)c3cn2)c1F` [Compound 178, N-[3-[1-(4-benzyl-1H-imidazol-2-yl)imidazo[1,5-a]pyrazin-6-yl]-2,4-difluorophenyl]-5-fluoro-2-methoxypyridine-3-sulfonamide] was tested. Which IC50 did it give?
A: Its IC50 is under 50 nM.

Q: How did the IC50 turn out when `Cc1nnc(-c2ncn3c2CC[C@@H](c2c(F)ccc(NS(=O)(=O)c4cc(F)cnc4C)c2F)C3)[nH]1` [Compound 134-1, N-[2,4-difluoro-3-[(6S)-1-(5-methyl-4H-1,2,4-triazol-3-yl)-5H,6H,7H,8H-imidazo[1,5-a]pyridin-6-yl]phenyl]-5-fluoro-2-methylpyridine-3-sulfonamide] was run?
A: The IC50 was under 50 nM.
